# Source: ChEMBL document CHEMBL1134585, “New 3'-azido-3'-deoxythymidin-5'-yl O-(4-hydroxyalkyl or -alkenyl or -alkylepoxide) carbonate prodrugs: synthesis and anti-HIV evaluation” (J Med Chem, 2001)
# pEC50: −log10 of the molar value.
# Tested on: not listed separately
# Assay: Partition coefficient (logP)
# Type: physicochemical
# Conditions: octanol/water
row,logP,Structure (SMILES)
1,-0.59,Cc1cn([C@H]2C[C@H](N=[N+]=[N-])[C@@H](COC(=O)OC/C=C/CO)O2)c(=O)[nH]c1=O
2,0.47,Cc1cn([C@H]2C[C@H](N=[N+]=[N-])[C@@H](COC(=O)OC[C@H]3O[C@H]3CO)O2)c(=O)[nH]c1=O
3,0.88,Cc1cn([C@H]2C[C@H](N=[N+]=[N-])[C@@H](CO)O2)c(=O)[nH]c1=O [ZIDOVUDINE]
4,0.59,Cc1cn([C@H]2C[C@H](N=[N+]=[N-])[C@@H](COC(=O)OC/C=C\CO)O2)c(=O)[nH]c1=O

# Tested on: not listed separately
# Assay: half life time required for 50% hydrolysis of prodrugs to AZT at 37 degrees upon incubation in Phosphate buffer saline(PBS), (0% of AZT was released)
# Type: ADME
# Conditions: not given
row,T1/2,Structure (SMILES)
1,> 1440 min,CCCCOC(=O)OCC1OC(n2cc(C)c(=O)[nH]c2=O)CC1N=[N+]=[N-] (centres undefined)

# Tested on: not listed separately
# Assay: half life time required for 50% hydrolysis of prodrugs to AZT at 37 degrees upon incubation in Phosphate buffer saline(PBS), (6% of AZT was released)
# Type: ADME
# Conditions: not given
row,T1/2,Structure (SMILES)
1,> 1440 min,Cc1cn(C2CC(N=[N+]=[N-])C(COC(=O)OCCCCO)O2)c(=O)[nH]c1=O (centres undefined)

# Tested on: not listed separately
# Assay: half life time required for 50% hydrolysis of prodrugs to AZT at 37 degrees upon incubation in Phosphate buffer saline(PBS), (8 % of AZT was released)
# Type: ADME
# Conditions: not given
row,T1/2,Structure (SMILES)
1,> 1440 min,Cc1cn([C@H]2C[C@H](N=[N+]=[N-])[C@@H](COC(=O)OC[C@H]3O[C@H]3CO)O2)c(=O)[nH]c1=O

# Tested on: not listed separately
# Assay: half life time required for 50% hydrolysis of prodrugs to AZT at 37 degrees upon incubation in Phosphate buffer saline(PBS), (8% of AZT was released)
# Type: ADME
# Conditions: not given
row,T1/2,Structure (SMILES)
1,> 1440 min,Cc1cn([C@H]2C[C@H](N=[N+]=[N-])[C@@H](COC(=O)OC/C=C\CO)O2)c(=O)[nH]c1=O

# Tested on: not listed separately
# Assay: half life time required for 50% hydrolysis of prodrugs to AZT at 37 degrees upon incubation in normal human serum(NHS)
# Type: ADME
# Conditions: not given
row,T1/2,Structure (SMILES)
1,16 min,Cc1cn(C2CC(N=[N+]=[N-])C(COC(=O)OCCCCCO)O2)c(=O)[nH]c1=O (centres undefined)
2,7 min,Cc1cn(C2CC(N=[N+]=[N-])C(COC(=O)OCCCCCCO)O2)c(=O)[nH]c1=O (centres undefined)
3,26 min,Cc1cn([C@H]2C[C@H](N=[N+]=[N-])[C@@H](COC(=O)OC/C=C/CO)O2)c(=O)[nH]c1=O
4,10 min,Cc1cn(C2CC(N=[N+]=[N-])C(COC(=O)OCCCO)O2)c(=O)[nH]c1=O (centres undefined)
5,80 min,Cc1cn([C@H]2C[C@H](N=[N+]=[N-])[C@@H](COC(=O)OC[C@H]3O[C@H]3CO)O2)c(=O)[nH]c1=O
6,30 min,Cc1cn(C2CC(N=[N+]=[N-])C(COC(=O)OCCCCO)O2)c(=O)[nH]c1=O (centres undefined)
7,9 min,CCCCOC(=O)OCC1OC(n2cc(C)c(=O)[nH]c2=O)CC1N=[N+]=[N-] (centres undefined)
8,< 1 min,Cc1cn(C2CC(N=[N+]=[N-])C(COC(=O)OCCO)O2)c(=O)[nH]c1=O (centres undefined)
9,45 min,Cc1cn([C@H]2C[C@H](N=[N+]=[N-])[C@@H](COC(=O)OC/C=C\CO)O2)c(=O)[nH]c1=O
10,2 min,Cc1cn(C2CC(N=[N+]=[N-])C(COC(=O)OCCCCCCCCO)O2)c(=O)[nH]c1=O (centres undefined)

# Tested on: not listed separately
# Assay: half life time required for 50% hydrolysis of prodrugs to AZT at 37 degrees upon incubation in Phosphate buffer saline(PBS), (% of AZT was released)
# Type: ADME
# Conditions: not given
row,T1/2,Structure (SMILES)
1,> 1440 min,Cc1cn([C@H]2C[C@H](N=[N+]=[N-])[C@@H](COC(=O)OC/C=C/CO)O2)c(=O)[nH]c1=O

# Tested on: MT4
# Assay: Conc. required to cause 50% death of uninfected MT-4 cells
# Type: functional
# Conditions: Homo sapiens
row,Structure (SMILES),CC50
1,Cc1cn([C@H]2C[C@H](N=[N+]=[N-])[C@@H](COC(=O)OC/C=C/CO)O2)c(=O)[nH]c1=O,162000 nM
2,Cc1cn([C@H]2C[C@H](N=[N+]=[N-])[C@@H](COC(=O)OC[C@H]3O[C@H]3CO)O2)c(=O)[nH]c1=O,159000 nM
3,Cc1cn([C@H]2C[C@H](N=[N+]=[N-])[C@@H](CO)O2)c(=O)[nH]c1=O [ZIDOVUDINE],42000 nM
4,Cc1cn(C2CC(N=[N+]=[N-])C(COC(=O)OCCCCO)O2)c(=O)[nH]c1=O (centres undefined),262000 nM
5,Cc1cn([C@H]2C[C@H](N=[N+]=[N-])[C@@H](COC(=O)OC/C=C\CO)O2)c(=O)[nH]c1=O,179000 nM

# Tested on: MT4
# Assay: Conc. required to inhibit the cytopathicity on HIV-1 by 50% on MT-4 cells
# Type: functional, cell-based
# Conditions: Homo sapiens
row,Structure (SMILES),pEC50
1,Cc1cn([C@H]2C[C@H](N=[N+]=[N-])[C@@H](COC(=O)OC[C@H]3O[C@H]3CO)O2)c(=O)[nH]c1=O,7.89
2,Cc1cn([C@H]2C[C@H](N=[N+]=[N-])[C@@H](CO)O2)c(=O)[nH]c1=O [ZIDOVUDINE],7.92
3,Cc1cn(C2CC(N=[N+]=[N-])C(COC(=O)OCCCCO)O2)c(=O)[nH]c1=O (centres undefined),8.22
4,Cc1cn([C@H]2C[C@H](N=[N+]=[N-])[C@@H](COC(=O)OC/C=C\CO)O2)c(=O)[nH]c1=O,7.74

# Species on record: Homo sapiens
# Assay: Conc. required to cause 50% death of uninfected PBMCs
# Type: functional
# Conditions: not given
row,Structure (SMILES),CC50
1,Cc1cn([C@H]2C[C@H](N=[N+]=[N-])[C@@H](COC(=O)OC/C=C/CO)O2)c(=O)[nH]c1=O,> 20000 nM
2,Cc1cn([C@H]2C[C@H](N=[N+]=[N-])[C@@H](COC(=O)OC[C@H]3O[C@H]3CO)O2)c(=O)[nH]c1=O,> 20000 nM
3,Cc1cn([C@H]2C[C@H](N=[N+]=[N-])[C@@H](CO)O2)c(=O)[nH]c1=O [ZIDOVUDINE],15000 nM
4,Cc1cn(C2CC(N=[N+]=[N-])C(COC(=O)OCCCCO)O2)c(=O)[nH]c1=O (centres undefined),> 20000 nM
5,Cc1cn([C@H]2C[C@H](N=[N+]=[N-])[C@@H](COC(=O)OC/C=C\CO)O2)c(=O)[nH]c1=O,> 20000 nM

# Species on record: Homo sapiens
# Assay: Conc. required to inhibit HIV-1 replication on PBMCs by 50%
# Type: functional, organism-based
# Conditions: not given
row,pEC50,Structure (SMILES)
1,7.18,Cc1cn([C@H]2C[C@H](N=[N+]=[N-])[C@@H](COC(=O)OC/C=C/CO)O2)c(=O)[nH]c1=O
2,6.99,Cc1cn([C@H]2C[C@H](N=[N+]=[N-])[C@@H](COC(=O)OC[C@H]3O[C@H]3CO)O2)c(=O)[nH]c1=O
3,7.25,Cc1cn([C@H]2C[C@H](N=[N+]=[N-])[C@@H](CO)O2)c(=O)[nH]c1=O [ZIDOVUDINE]
4,7.51,Cc1cn(C2CC(N=[N+]=[N-])C(COC(=O)OCCCCO)O2)c(=O)[nH]c1=O (centres undefined)
5,7.28,Cc1cn([C@H]2C[C@H](N=[N+]=[N-])[C@@H](COC(=O)OC/C=C\CO)O2)c(=O)[nH]c1=O

# Tested on: MT4
# Assay: Conc. required to inhibit the cytopathicity of HIV-1 by 50% on MT-4 cells
# Type: functional, cell-based
# Conditions: Homo sapiens
row,Structure (SMILES),pEC50
1,Cc1cn([C@H]2C[C@H](N=[N+]=[N-])[C@@H](COC(=O)OC/C=C/CO)O2)c(=O)[nH]c1=O,8.10
